{"source": "paper PMC10807816", "about": "“Molecular mechanisms and evolutionary robustness of a color switch in proteorhodopsins” (Science Advances, 2024)", "molecular_target": "T1, GPR (green proteorhodopsin) (uncultured marine gamma proteobacterium EBAC31A08, UniProt Q9F7P4, L105Q)", "T1 construct": "pET27b(+) NdeI/XhoI, C-terminal HSV tag and His6 tag kept; E. coli C43; Ni-NTA, DDM, DMPC/DMPA liposomes", "T1 sequence (Q9F7P4 18-249 L105Q)": "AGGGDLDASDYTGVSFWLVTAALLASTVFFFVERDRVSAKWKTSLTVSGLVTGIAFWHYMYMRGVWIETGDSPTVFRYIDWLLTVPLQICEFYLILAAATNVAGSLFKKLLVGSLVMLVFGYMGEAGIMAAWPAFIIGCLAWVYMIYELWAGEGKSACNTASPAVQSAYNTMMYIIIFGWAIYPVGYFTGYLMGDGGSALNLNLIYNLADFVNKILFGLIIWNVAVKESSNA", "assay": "solid-state NMR (DNP, CSA, 2D […]/1H/[…]) and UV-Vis", "type": "binding", "settings": "covalent; protonated Schiff base to Lys231; pH 9.0; labelled compound; called BPR", "data": [{"compound": "CC1=C(/C=C/C(C)=C/C=C/C(C)=C/C=O)C(C)(C)CCC1", "note": "[all-trans retinal]", "values": [{"measurement": "solid-state NMR (DNP, CSA, 2D 13C/1H/15N) and UV-Vis", "value": "Notable chemical shift changes between GPR and BPR have been observed"}]}]}
